Experiments:
[1] = target: T1, Brd4 bromodomain 1 (BRD4(1)) (Homo sapiens, UniProt O60885); experiment: Inhibition of tetra-acetylated histone H4 binding to Brd4 bromodomain 1, measured by FRET (HTRF); parameters: made in house; host or cells: E. coli BL21(DE3); conditions: 2 h at room temperature
In short: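 N-terminally His-tagged bromodomain (200 nM), expressed in E. coli and purified by Ni affinity and size exclusion, was incubated with biotinylated tetra-acetylated H4 peptide (25-50 nM), Eu-cryptate streptavidin and XL665 anti-His in HEPES pH 7.4 buffer with 0.2% DMSO. Reactions ran 2 h at room temperature. IC50 came from the 665/620 nm fluorescence decrease.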

hIL-17 mRNA = experiment: Inhibition of hIL-17 mRNA transcription in OKT3-stimulated peripheral blood mononuclear cells; type: cell-based; conditions: human PBMC, OKT3 stimulation 6 h, read-out: IL-17 Activity
In short: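 Human PBMCs in IL-2 (20 ng/ml) medium preincubated 1 h with compound or 0.1% DMSO, then OKT3-stimulated for 6 h at 37 °C. hIL-17 mRNA quantified by one-step TaqMan qRT-PCR, normalized to an internal control, as fold induction relative to control.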

Human AML MV-4-11 cells = experiment: Inhibition of cell proliferation in MV4-11 cells (CellTiter Aqueous One); type: cell-based; conditions: MV4-11, 72 h
In short: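 MV4-11 cells, 5×10^4 per well in IMDM with 10% FBS, were exposed to increasing compound concentrations or 0.1% DMSO for 72 h at 37 °C in triplicate. Viability was read by MTS (CellTiter Aqueous One) absorbance at 490 nm after 3-4 h. IC50 was derived from background-corrected signal relative to DMSO.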

[2] = tested on: c-myc in Human AML MV4-11 cells; experiment: Inhibition of cMYC expression (mRNA, real-time PCR) in MV4-11 cells; type: cell-based; conditions: 3 h treatment, cMYC mRNA by real-time PCR
In short: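 MV4-11 cells in IMDM with 10% FBS were treated with increasing compound concentrations (DMSO 0.1%) for 3 h at 37 °C, in triplicate. Isolated mRNA was quantified by one-step TaqMan RT-qPCR, cMYC Ct normalized to cyclophilin, and fold expression given relative to DMSO control.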

MV4-11 cells = experiment: In vivo efficacy in athymic nude mouse acute myeloid leukemia xenograft model using MV4-11 cells; conditions: athymic nude mouse AML xenograft (MV4-11), oral dosing
Description: MV4-11 cells (ATCC) were grown under standard cell culture conditions and (NCr) nu/nu fisol strain of female mice age 6-7 weeks were injected with 5×10^6 cells/animal in 100 μL PBS+100 μL Matrigel in the lower left abdominal flank. By approximately day 18-21 after MV4-11 cells injection, mice were randomized based on tumor volume (L×W×H)/2) of average ˜100-300 mm^3. Mice were dosed orally with compound at 5 to 120 mg/kg b.i.d and/or q.d. on a continuous dosing schedule and at 2.5 to 85 mg/kg q.d. on a 5 day on 2 day off, 100 mg/kg q.d. on a 4 day on and 3 day off, 135 mg/kg q.d. on a 3 day on and 4 day off, 180 mg/kg on a 2 day on and 5 day off and 240 mg/kg on a 1 day on and 6 days off dosing schedules in EA006 formulation at 10 mL/kg body weight dose volume. Tumor measurements were taken with electronic micro calipers and body weights measured on alternate days beginning from dosing period. The average tumor volumes, percent Tumor Growth Inhibition (TGI) and % change in body weights were compared relative to Vehicle control animals. The means, statistical analysis and the comparison between groups were calculated using Student's t-test in Excel.

hIL-6 mRNA = experiment: Inhibition of hIL-6 mRNA transcription in LPS-stimulated U937 macrophages; type: cell-based, Human; conditions: Homo sapiens, U-937, PMA-differentiated U937 cells, 1 h pretreatment, LPS 3 h, read-out: IL-6 activity
In short: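 PMA-differentiated U937 macrophages (60 ng/mL PMA, 3 days) pretreated 1 h with compound in 0.1% DMSO, then stimulated with 1 ug/mL E. coli LPS for 3 h at 37° C. IL-6 mRNA quantified by one-step TaqMan qRT-PCR, normalized to cyclophilin; fold expression relative to control, triplicate wells.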

[3] = target: T1, Brd4 bromodomain 1 (BRD4(1)); experiment: Inhibition of tetra-acetylated histone H4 binding to Brd4 bromodomain 1, measured by FRET (HTRF); parameters: to Brd4 bromodomain 1 (BRD4(1) as Measured by FRET); made in house; host or cells: E. coli BL21(DE3); conditions: 2 h at room temperature
Description: Proteins were cloned and overexpressed with a N-terminal 6×His tag, then purified by nickel affinity followed by size exclusion chromatography. Briefly, E. coli BL21(DE3) cells were transformed with a recombinant expression vector encoding N-terminally Nickel affinity tagged bromodomains from Brd2, Brd3, Brd4. Cell cultures were incubated at 37° C. with shaking to the appropriate density and induced overnight with IPTG. The supernatant of lysed cells was loaded onto Ni-IDA column for purification. Eluted protein was pooled, concentrated and further purified by size exclusion chromatography. Fractions representing monomeric protein were pooled, concentrated, aliquoted, and frozen at −80° C. for use in subsequent experiments.
Binding of tetra-acetylated histone H4 and BET bromodomains was confirmed by a Homogenous Time Resolved Fluorescence Resonance Energy Transfer (HTRF®) method. […] After a 2 h incubation at room temperature, fluorescence was measured at 665 and 620 nm with a SynergyH4 plate reader (Biotek). The binding inhibitory activity was shown by a decrease in 665 nm relative to 620 nm fluorescence. IC50 values were determined from a dose response curve.

IC50 [1] [nM] | IC50 (hIL-17 mRNA) [nM] | IC50 (Human AML MV-4-11 cells) [nM] | IC50 [2] [nM] | IC50 (hIL-6 mRNA) [nM] | IC50 [3] [nM] | Structure (SMILES) | In vivo activity (MV4-11 cells)
≤ 300 | ≤ 300 | 300 to 3000 | 300 to 3000 | ≤ 300 | – | Cc1noc(C)c1-c1cc(-c2c(C)nn(C)c2C)c2nc[nH]c2c1 [Example Compound 9, 3,5-dimethyl-4-(4-(1,3,5-trimethyl-1H-pyrazol-4-yl)-1H-benzo[d]imidazol-6-yl)isoxazole] | Active
≤ 300 | ≤ 300 | 300 to 3000 | 300 to 3000 | ≤ 300 | – | Cc1ncccc1-c1cc(-c2c(C)noc2C)cc2[nH]cnc12 [Example Compound 27, 3,5-dimethyl-4-(4-(2-methylpyridin-3-yl)-1H-benzo[d]imidazol-6-yl)isoxazole] | Active
– | – | 300 to 3000 | 300 to 3000 | 300 to 3000 | ≤ 300 | Cc1ncccc1-c1cc(-c2c(C)noc2C)cc2cn[nH]c12 [Example Compound 70] | –

From patent publication US9999616B2 (ZENITH EPIGENETICS LTD., priority 2013, dated 2018)
